# Species: Rattus norvegicus
# Experiment: Open TG-GATES - Regimen: Single
# Assay type: toxicity, organism-based, Sprague-Dawley
# Set-up: regimen Single, gender Male, age 6 weeks
# Settings: in vivo, po, 0 mg/kg, route gavage, dose level Control; for APTT / Bas / Eos / Fbg / Hb / Ht / Lym / MCH / MCHC / MCV / Mono / Neu / PT / Plat / RBC / Ret / WBC: tissue Blood; for KIDNEY_L / KIDNEY_R / KIDNEY_TOTAL: tissue Kidney; for LIVER: tissue Liver; for A/G / ALP / ALT / AST / BUN / CRE / Ca / Cl / DBIL / GLC / IP / K / LDH / Na / PL / RALB / TBIL / TC / TG / TP / gamma-GTP: tissue Plasma
compound,measurement,setting,value
CC(=O)[C@@]1(O)CC[C@H]2[C@@H]3C=C(Cl)C4=CC(=O)CC[C@]4(C)[C@H]3CC[C@@]21C [CHLORMADINONE],TERMINAL_BW,3 h,219.1 g
same,APTT,3 h,23.2 s
same,Bas,3 h,0%
same,Eos,3 h,0.6%
same,Fbg,3 h,294.4 mg/dL
same,Hb,3 h,13.3 g/dL
same,Ht,3 h,41%
same,Lym,3 h,83.4%
same,MCH,3 h,20.4 pg
same,MCHC,3 h,32.3%
same,MCV,3 h,63.1 fL
same,Mono,3 h,2.2%
same,Neu,3 h,13.2%
same,PT,3 h,15.5 s
same,Plat,3 h,111.7 x10_4/uL
same,RBC,3 h,650.2 x10_4/ul
same,Ret,3 h,8%
same,WBC,3 h,78.7 x10_2/uL
same,KIDNEY_L,3 h,1 g
same,KIDNEY_R,3 h,1 g
same,KIDNEY_TOTAL,3 h,2 g
same,LIVER,3 h,10 g
same,A/G,3 h,1.2
same,ALP,3 h,1607 IU/L
same,ALT,3 h,42 IU/L
same,AST,3 h,77.8 IU/L
same,BUN,3 h,13.4 mg/dL
same,CRE,3 h,0.2 mg/dL
same,Ca,3 h,10.8 mg/dL
same,Cl,3 h,105.2 meq/L
same,DBIL,3 h,0 mg/dL
same,GLC,3 h,180 mg/dL
same,IP,3 h,8.1 mg/dL
same,K,3 h,4.3 meq/L
same,LDH,3 h,163.6 IU/L
same,Na,3 h,142.2 meq/L
same,PL,3 h,130.6 mg/dL
same,RALB,3 h,3 g/dL
same,TBIL,3 h,0.02 mg/dL
same,TC,3 h,71.8 mg/dL
same,TG,3 h,63.4 mg/dL
same,TP,3 h,5.4 g/dL
same,gamma-GTP,3 h,1.8 IU/L
same,TERMINAL_BW,6 h,216.7 g
same,APTT,6 h,23.8 s
same,Bas,6 h,0%
same,Eos,6 h,0.6%
same,Fbg,6 h,293.2 mg/dL
same,Hb,6 h,13.3 g/dL
same,Ht,6 h,41.1%
same,Lym,6 h,80.6%
same,MCH,6 h,20.6 pg
same,MCHC,6 h,32.3%
same,MCV,6 h,63.8 fL
same,Mono,6 h,2.8%
same,Neu,6 h,15.4%
same,PT,6 h,16.1 s
same,Plat,6 h,112 x10_4/uL
same,RBC,6 h,643.6 x10_4/ul
same,Ret,6 h,7.8%
same,WBC,6 h,116.8 x10_2/uL
same,KIDNEY_L,6 h,0.9 g
same,KIDNEY_R,6 h,1 g
same,KIDNEY_TOTAL,6 h,2 g
same,LIVER,6 h,9.2 g
same,A/G,6 h,1.2
same,ALP,6 h,1313.8 IU/L
same,ALT,6 h,40.8 IU/L
same,AST,6 h,74.6 IU/L
same,BUN,6 h,12.8 mg/dL
same,CRE,6 h,0.1 mg/dL
same,Ca,6 h,10.5 mg/dL
same,Cl,6 h,105.4 meq/L
same,DBIL,6 h,0 mg/dL
same,GLC,6 h,190.8 mg/dL
same,IP,6 h,9.3 mg/dL
same,K,6 h,4.4 meq/L
same,LDH,6 h,174.8 IU/L
same,Na,6 h,141.2 meq/L
same,PL,6 h,132.6 mg/dL
same,RALB,6 h,2.9 g/dL
same,TBIL,6 h,0.022 mg/dL
same,TC,6 h,73.2 mg/dL
same,TG,6 h,48.6 mg/dL
same,TP,6 h,5.3 g/dL
same,gamma-GTP,6 h,1.2 IU/L
same,TERMINAL_BW,9 h,217.4 g
same,APTT,9 h,23.3 s
same,Bas,9 h,0%
same,Eos,9 h,0.8%
same,Fbg,9 h,309.2 mg/dL
same,Hb,9 h,12.9 g/dL
same,Ht,9 h,39.8%
same,Lym,9 h,80%
same,MCH,9 h,20.5 pg
same,MCHC,9 h,32.3%
same,MCV,9 h,63.4 fL
same,Mono,9 h,2.6%
same,Neu,9 h,15.8%
same,PT,9 h,15.6 s
same,Plat,9 h,123.4 x10_4/uL
same,RBC,9 h,628 x10_4/ul
same,Ret,9 h,8.2%
same,WBC,9 h,100.7 x10_2/uL
same,KIDNEY_L,9 h,1 g
same,KIDNEY_R,9 h,1 g
same,KIDNEY_TOTAL,9 h,2 g
same,LIVER,9 h,9.4 g
same,A/G,9 h,1.3
same,ALP,9 h,1276.4 IU/L
same,ALT,9 h,36.8 IU/L
same,AST,9 h,70.2 IU/L
same,BUN,9 h,13.6 mg/dL
same,CRE,9 h,0.2 mg/dL
same,Ca,9 h,10.5 mg/dL
same,Cl,9 h,104.8 meq/L
same,DBIL,9 h,0 mg/dL
same,GLC,9 h,202.6 mg/dL
same,IP,9 h,9.6 mg/dL
same,K,9 h,4.1 meq/L
same,LDH,9 h,170 IU/L
same,Na,9 h,141.2 meq/L
same,PL,9 h,128.4 mg/dL
same,RALB,9 h,3 g/dL
same,TBIL,9 h,0.02 mg/dL
same,TC,9 h,70.4 mg/dL
same,TG,9 h,69.8 mg/dL
same,TP,9 h,5.3 g/dL
same,gamma-GTP,9 h,1.6 IU/L
same,TERMINAL_BW,24 h,233 g
same,APTT,24 h,23.5 s
same,Bas,24 h,0%
same,Eos,24 h,0.8%
same,Fbg,24 h,308.8 mg/dL
same,Hb,24 h,13.3 g/dL
same,Ht,24 h,40.9%
same,Lym,24 h,82.8%
same,MCH,24 h,20.5 pg
same,MCHC,24 h,32.5%
same,MCV,24 h,63.1 fL
same,Mono,24 h,2.2%
same,Neu,24 h,13.4%
same,PT,24 h,15.9 s
same,Plat,24 h,115.3 x10_4/uL
same,RBC,24 h,649.2 x10_4/ul
same,Ret,24 h,7.8%
same,WBC,24 h,120.1 x10_2/uL
same,KIDNEY_L,24 h,1 g
same,KIDNEY_R,24 h,1 g
same,KIDNEY_TOTAL,24 h,2 g
same,LIVER,24 h,11 g
same,A/G,24 h,1.2
same,ALP,24 h,1565 IU/L
same,ALT,24 h,45.4 IU/L
same,AST,24 h,73.6 IU/L
same,BUN,24 h,17.8 mg/dL
same,CRE,24 h,0.2 mg/dL
same,Ca,24 h,10.9 mg/dL
same,Cl,24 h,105.4 meq/L
same,DBIL,24 h,0 mg/dL
same,GLC,24 h,197.8 mg/dL
same,IP,24 h,7.3 mg/dL
same,K,24 h,4.7 meq/L
same,LDH,24 h,219 IU/L
same,Na,24 h,140.6 meq/L
same,PL,24 h,166 mg/dL
same,RALB,24 h,3 g/dL
same,TBIL,24 h,0.01 mg/dL
same,TC,24 h,85 mg/dL
same,TG,24 h,115 mg/dL
same,TP,24 h,5.5 g/dL
same,gamma-GTP,24 h,1 IU/L
